Reference: US10143666B2, “Small molecule inhibitors targeting CAG-repeat RNA toxicity in polyglutamine diseases” (The Chinese University of Hong Kong, priority 2015, dated 2018)

System: EGFPCAG78 RNA expressing SK-N-MC cells
Assay: LDH cytotoxicity assay, EGFPCAG78 RNA expressing SK-N-MC cells
Format: cell-based, human
Settings: 72 hours post-transfection and treatment
Experimental: It was next investigated whether DB213 could mitigate expanded CAG-repeat RNA-mediated toxicity in SK-N-MC human neuronal cell. […] Taken together, DB213 could suppress the expanded CAG RNA-mediated but not polyQ protein-mediate toxicity in human neuronal cell.
SK-N-MC human neuronal cells were seeded on a 24-well plate and lactate dehydrogenase enzyme activity in the cell culture medium was measured 72 hours post-transfection and drugs treatment using the Cytotox 96 non-radioactive cytotoxicity assay (Promega).

## CN(C)CCNC(=N)c1ccc(C(=N)NCCN(C)C)cc1.Cl.Cl.Cl.Cl [DB213_D1]
  Cell death induced by EGFPCAG78 RNA (LDH assay): did not rescue the cell death
